The results in this text go back to patent US20180305332A1, “Bispiperidinyl Derivatives as Liver X Receptor Beta Agonists, Compositions, and Their Use” (Merck Sharp & Dohme Corp., priority 2015, published 2018).

The target of experiment [1] is T1, GST tagged LXRalpha LBD (ligand binding domain) (Homo sapiens, UniProt Q13133).
T1 construct: purchased Invitrogen pv4655
T1 sequence (Q13133 209-447 limits assumed): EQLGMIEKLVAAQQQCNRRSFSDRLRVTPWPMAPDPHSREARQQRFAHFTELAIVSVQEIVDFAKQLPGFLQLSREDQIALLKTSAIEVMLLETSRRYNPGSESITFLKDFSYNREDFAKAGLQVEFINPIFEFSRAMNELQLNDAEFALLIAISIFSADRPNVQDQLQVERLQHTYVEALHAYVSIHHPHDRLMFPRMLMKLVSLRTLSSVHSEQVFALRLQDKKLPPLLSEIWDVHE
The experiment can be described thus: LanthaScreen TR-FRET Liver X Receptor Coactivator Assay, LXR alpha-LBD. It counts as biochemical. Conditions: relative to reference T0901317; for EC50 / LXR alpha IP (nM): Inflection Point (potency), co-activator recruitment; for EC50: read-out: LXR alpha IP; for Emax: activity at max dose (efficacy), read-out: LXR alpha act @ max dose (%). Put shortly:
(§1)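 GST-tagged human LXRα or LXRβ LBD was mixed with test compound, then fluorescein-labelled coactivator peptide and terbium anti-GST antibody added. After room-temperature incubation, TR-FRET was read. Inflection point and Emax expressed relative to reference dual agonist T0901317.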

For experiment [2], the target named is T2, GST tagged LXRbeta LBD (ligand binding domain) (Homo sapiens, UniProt P55055).
T2 construct: purchased Invitrogen pv4658.pps
T2 sequence (P55055 222-460 limits assumed): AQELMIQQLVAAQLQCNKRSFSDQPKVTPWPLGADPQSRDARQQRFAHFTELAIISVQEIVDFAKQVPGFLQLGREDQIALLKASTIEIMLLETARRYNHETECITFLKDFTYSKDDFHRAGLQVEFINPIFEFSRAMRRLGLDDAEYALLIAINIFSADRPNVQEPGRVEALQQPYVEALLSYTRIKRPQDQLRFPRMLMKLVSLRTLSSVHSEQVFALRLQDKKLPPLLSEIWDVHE
The experiment can be described thus: LanthaScreen TR-FRET Liver X Receptor Coactivator Assay, LXR beta-LBD. It counts as biochemical. The following applies: relative to reference T0901317; for EC50: Inflection Point (potency), co-activator recruitment, read-out: LXR beta IP; for Emax: activity at max dose (efficacy), read-out: LXR beta act @ max dose (%). Put shortly:
as §1
(TR-FRET usually uses a lanthanide donor and a delayed reading to cut background.)

With `CN(C)C(=O)c1ccc(N2CCC(C3CCN(C(=O)C(O)(c4ccccc4)C(F)(F)F)CC3)CC2)cc1Cl` (stereo not shown) [Example A-36, 2-chloro-N,N-dimethyl-4-[1′-(3,3,3-trifluoro-2-hydroxy-2-phenylpropanoyl)-4,4′-bipiperidin-1-yl]benzamide], the EC50 in experiment [1] was 1.8 µM; in experiment [2] it was 0.108 µM. For the same compound, the results for the Emax in experiment [1] and in experiment [2] were 27% and 113%, respectively.

In the case of `CN(C)C(=O)c1ccc(N2CCC(C3CCN(C(=O)c4c(F)cc(F)cc4F)CC3)CC2)cc1Cl` [Example A-37, 2-chloro-N,N-dimethyl-4-{1′-[(2,4,6-trifluorophenyl)carbonyl]-4,4′-bipiperidin-1-yl}benzamide], in experiment [1], the EC50 was determined as 4.1 µM and the Emax came out at 35%. For the same compound, in experiment [2], the EC50 turned out to be 0.274 µM and the Emax was found to be 93%.

On to `COc1ccc(C2(C(=O)N3CCC(C4CCN(c5ccc(C(=O)N(C)C)c(Cl)c5)CC4)CC3)CCCC2)cc1` [Example A-46, 2-chloro-4-(1′-{[1-(4-methoxyphenyl)cyclopentyl]carbonyl}-4,4′-bipiperidin-1-yl)-N,N-dimethylbenzamide], for which, in experiment [1], the “LXR alpha IP (nM)” value is “NO IP” and the Emax is 0%. Also, in experiment [2], the EC50 was found to be 0.187 µM and the Emax turned out to be 34%.

Turning to `CN(C)C(=O)c1ccc(N2CCC(C3CCN(C(=O)c4c(F)cccc4F)CC3)CC2)cc1Cl` [Example A-23, 2-chloro-4-{1′-[(2,6-difluorophenyl)carbonyl]-4,4′-bipiperidin-1-yl}-N,N-dimethylbenzamide], in experiment [1], the EC50 turned out to be 2.98 µM and the Emax worked out at 23%. Further, in experiment [2], the EC50 is 0.079 µM and the Emax came to 92%.

Turning to `O=C(c1ccc(N2CCC(C3CCN(C(=O)[C@](O)(c4ccccc4)C(F)(F)F)CC3)CC2)cc1Cl)N1CCC1CO` (stereo partly drawn) [Example E-46, (2R)-3-[1′-(3-chloro-4-{[2-(hydroxymethyl)azetidin-1-yl]carbonyl}phenyl)-4,4′-bipiperidin-1-yl]-1,1,1-trifluoro-3-oxo-2-phenylpropan-2-ol], in experiment [1], the EC50 came out at 2.25 µM and the Emax was found to be 27%. In experiment [2], the EC50 was 0.395 µM and the Emax came out at 55%.

On to `CN(C)C(=O)c1ccc(N2CCC(C3CCN(C(=O)C(C)(C)c4ccccc4F)CC3)CC2)cc1Cl` [Example A-80, 2-chloro-4-{1′-[2-(2-fluorophenyl)-2-methylpropanoyl]-4,4′-bipiperidin-1-yl}-N,N-dimethylbenzamide], for which, in experiment [1], the EC50 is 1.17 µM and the Emax came to 67%. Besides, in experiment [2], the EC50 is 0.031 µM and the Emax is 116%.

For the compound `CC(C)N(C(=O)c1ccc(N2CCC(C3CCN(C(=O)C(O)(C(C)C)C(F)(F)F)CC3)CC2)cc1Cl)C(C)C` (stereo not shown) [Example E-11, 2-chloro-4-{1′-[2-hydroxy-3-methyl-2-(trifluoromethyl)butanoyl]-4,4′-bipiperidin-1-yl}-N,N-bis(1-methylethyl)benzamide], in experiment [1], the EC50 turned out to be 1.07 µM and the Emax turned out to be 1%. Moreover, in experiment [2], the EC50 is 0.156 µM and the Emax was determined as 33%.

On to `CN(CC1CC1(C)C)C(=O)c1ccc(N2CCC(C3CCN(C(=O)c4c(F)cccc4F)CC3)CC2)cc1Cl` (stereo not shown) [Example E-15, 2-chloro-4-{1′-[(2,6-difluorophenyl)carbonyl]-4,4′-bipiperidin-1-yl}-N-[(2,2-dimethylcyclopropyl)methyl]-N-methylbenzamide], for which, in experiment [1], the “LXR alpha IP (nM)” value is listed as “NO IP” and the Emax was 10%. Moreover, in experiment [2], the EC50 stood at 0.283 µM and the Emax was 54%.

In the case of `O=C(c1ccc(N2CCC(C3CCN(C(=O)[C@](O)(c4ccccc4)C(F)(F)F)CC3)CC2)cc1Cl)N1CC(N2CCCC2)C1` [Example E-42, (2R)-3-(1′-{3-chloro-4-[(3-pyrrolidin-1-ylazetidin-1-yl)carbonyl]phenyl}-4,4′-bipiperidin-1-yl)-1,1,1-trifluoro-3-oxo-2-phenylpropan-2-ol], the EC50 in experiment [1] was found to be 1.46 µM; in experiment [2], 0.098 µM. Also, the Emax in experiment [1] was 25%; in experiment [2] it was 39%.

`CN(C)C(=O)c1ccc(N2CCC(C3CCN(C(=O)C4(c5ccc(Cl)c(Cl)c5)CCC4)CC3)CC2)cc1Cl` [Example A-74, 2-chloro-4-(1′-{[1-(3,4-dichlorophenyl)cyclobutyl]carbonyl}-4,4′-bipiperidin-1-yl)-N,N-dimethylbenzamide]: in experiment [1], the “LXR alpha IP (nM)” value is reported as “NO IP” and the Emax was found to be 0%. Moreover, in experiment [2], the EC50 is 0.413 µM and the Emax is 57%.

For the compound `O=C(c1ccc(N2CCC(C3CCN(C(=O)[C@](O)(c4ccccc4)C(F)(F)C(F)(F)F)CC3)CC2)cc1Cl)N1CCCC1` [Example E-17], in experiment [1], the EC50 was 0.76 µM and the Emax amounted to 33%. For the same compound, in experiment [2], the EC50 came out at 0.105 µM and the Emax is 130%.

`CC(C)C(O)(C(=O)N1CCC(C2CCN(c3cc(Cl)c(C(=O)N(C)C)c(Cl)c3)CC2)CC1)C(F)(F)F` (stereo not shown) [Example A-34, 2,6-dichloro-4-{1′-[2-hydroxy-3-methyl-2-(trifluoromethyl)butanoyl]-4,4′-bipiperidin-1-yl}-N,N-dimethylbenzamide]: in experiment [1], the EC50 is 1.35 µM and the Emax turned out to be 46%. In addition, in experiment [2], the EC50 was 0.119 µM and the Emax came to 103%.

`CN(C)C(=O)c1ccc(N2CCC(C3CCN(C(=O)C(O)(c4ccccc4F)C(F)(F)F)CC3)CC2)cc1Cl` (stereo not shown) [Example A-96, 2-chloro-N,N-dimethyl-4-{1′-[3,3,3-trifluoro-2-(2-fluorophenyl)-2-hydroxypropanoyl]-4,4′-bipiperidin-1-yl}benzamide]: the EC50 in experiment [1] is 2.34 µM; in experiment [2] it was 0.132 µM. Further, the Emax in experiment [1] turned out to be 29%; in experiment [2], 107%.

Regarding `Cc1ccc(C(C)(C)C(=O)N2CCC(C3CCN(c4ccc(C(=O)N(C)C)c(Cl)c4)CC3)CC2)cc1` [Example A-92, 2-chloro-N,N-dimethyl-4-{1′-[2-methyl-2-(4-methylphenyl)propanoyl]-4,4′-bipiperidin-1-yl}benzamide], the values for the EC50 in experiment [1] and in experiment [2] were 2.84 µM and 0.193 µM, respectively. Besides, the results for the Emax in experiment [1] and in experiment [2] were 31% and 99%, respectively.

Consider `CN(Cc1noc(C2CC2)n1)C(=O)c1ccc(N2CCC(C3CCN(C(=O)[C@](O)(c4ccccc4)C(F)(F)F)CC3)CC2)cc1Cl` [Example E-54, 2-chloro-N-[(5-cyclopropyl-1,2,4-oxadiazol-3-yl)methyl]-N-methyl-4-{1′-[(2R)-3,3,3-trifluoro-2-hydroxy-2-phenylpropanoyl]-4,4′-bipiperidin-1-yl}benzamide], for which, in experiment [1], the EC50 worked out at 1.46 µM and the Emax was found to be 55%. Further, in experiment [2], the EC50 is 0.035 µM and the Emax was determined as 93%.

Regarding `CC(C)C(O)(C(=O)N1CCC(C2CCN(c3cc(F)c(C(=O)N(C)C)c(F)c3)CC2)CC1)C(F)(F)F` [Example D-1, 2,6-difluoro-4-{1′-[2-hydroxy-3-methyl-2-(trifluoromethyl)butanoyl]-4,4′-bipiperidin-1-yl}-N,N-dimethylbenzamide], the figures for the EC50 in experiment [1] and in experiment [2] were 1.45 µM and 0.157 µM, respectively. Moreover, the Emax is 43% in experiment [1] and 101% in experiment [2].

Consider `COc1ccccc1C(O)(C(=O)N1CCC(C2CCN(c3ccc(C(=O)N(C)C)c(Cl)c3)CC2)CC1)C(F)(F)F` (stereo not shown) [Example A-97, 2-chloro-N,N-dimethyl-4-{1′-[3,3,3-trifluoro-2-hydroxy-2-(2-methoxyphenyl)propanoyl]-4,4′-bipiperidin-1-yl}benzamide], for which, in experiment [1], the EC50 worked out at 2.43 µM and the Emax turned out to be 37%. Moreover, in experiment [2], the EC50 came to 0.114 µM and the Emax is 100%.

On to `CC(C)C(O)(C(=O)N1CCC(C2CCN(c3ccc(C(=O)N4CCCC4)c(Cl)c3)CC2)CC1)C(F)(F)F` (stereo not shown) [Example E-7, 2-({1′-[3-chloro-4-(pyrrolidin-1-ylcarbonyl)phenyl]-4,4′-bipiperidin-1-yl}carbonyl)-1,1,1-trifluoro-3-methylbutan-2-ol], for which, in experiment [1], the EC50 was determined as 1.92 µM and the Emax was 32%. In addition, in experiment [2], the EC50 came out at 0.108 µM and the Emax was 74%.

In the case of `CC(C)C(O)(C(=O)N1CCC(C2CCN(c3ccc(C(=O)N(C)C)c(Cl)n3)CC2)CC1)C(F)(F)F` (stereo not shown) [Example B-4, 2-chloro-6-{1′-[2-hydroxy-3-methyl-2-(trifluoromethyl)butanoyl]-4,4′-bipiperidin-1-yl}-N,N-dimethylpyridine-3-carboxamide], the EC50 in experiment [1] worked out at 0.493 µM; in experiment [2], 0.026 µM. Also, the Emax turned out to be 48% in experiment [1] and 123% in experiment [2].
